# Biological target: T1, SIRT-1 (Homo sapiens, UniProt Q96EB6)
# T1 sequence (Q96EB6 1-747): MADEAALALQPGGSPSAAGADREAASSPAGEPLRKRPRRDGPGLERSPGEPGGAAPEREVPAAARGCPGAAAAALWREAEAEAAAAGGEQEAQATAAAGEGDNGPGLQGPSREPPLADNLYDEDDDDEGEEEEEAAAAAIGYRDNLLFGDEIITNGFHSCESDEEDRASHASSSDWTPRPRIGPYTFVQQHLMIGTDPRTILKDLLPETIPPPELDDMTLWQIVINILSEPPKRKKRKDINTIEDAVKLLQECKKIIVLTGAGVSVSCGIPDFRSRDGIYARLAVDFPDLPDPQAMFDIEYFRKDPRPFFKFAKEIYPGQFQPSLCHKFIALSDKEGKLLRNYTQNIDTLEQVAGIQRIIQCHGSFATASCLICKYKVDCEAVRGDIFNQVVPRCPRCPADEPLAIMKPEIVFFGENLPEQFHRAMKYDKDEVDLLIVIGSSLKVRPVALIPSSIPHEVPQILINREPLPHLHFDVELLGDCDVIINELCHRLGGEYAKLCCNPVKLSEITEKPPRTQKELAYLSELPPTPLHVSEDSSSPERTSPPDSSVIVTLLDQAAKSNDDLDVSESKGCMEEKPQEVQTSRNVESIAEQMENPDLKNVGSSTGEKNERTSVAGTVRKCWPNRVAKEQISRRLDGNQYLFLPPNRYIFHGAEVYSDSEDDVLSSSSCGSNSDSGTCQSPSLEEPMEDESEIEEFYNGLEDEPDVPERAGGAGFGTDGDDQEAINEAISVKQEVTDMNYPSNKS
# Assay: Inhibition of sirtuins, SIRT-1
# Type: biochemical
# Conditions: Table 3 SIRT
# From the text: Inhibition of Sirtuins, Matrix Metalloproteinase, Bromodomains was Also Confirmed Using Standard Protocols and the Results are Present in Table 2.
row,SMILES,IC50 [µM]
1,COc1cc(-c2cc(=O)c3c(O)cc(O)c(C/C=C(\C)CCC=C(C)C)c3o2)ccc1O [FBL-03C],39.5
2,COc1cc(-c2cc(=O)c3c(O)c(CC=C(C)C)c(O)cc3o2)ccc1O [FBL-03B],27.4
3,COc1cc(-c2cc(=O)c3c(O)c(C/C=C(\C)CCC=C(C)C)c(O)cc3o2)ccc1O [FBL-03A],19

# Biological target: T2, CK2a (Homo sapiens, UniProt P68400)
# T2 construct: made in house
# T2 sequence (P68400 whole entry): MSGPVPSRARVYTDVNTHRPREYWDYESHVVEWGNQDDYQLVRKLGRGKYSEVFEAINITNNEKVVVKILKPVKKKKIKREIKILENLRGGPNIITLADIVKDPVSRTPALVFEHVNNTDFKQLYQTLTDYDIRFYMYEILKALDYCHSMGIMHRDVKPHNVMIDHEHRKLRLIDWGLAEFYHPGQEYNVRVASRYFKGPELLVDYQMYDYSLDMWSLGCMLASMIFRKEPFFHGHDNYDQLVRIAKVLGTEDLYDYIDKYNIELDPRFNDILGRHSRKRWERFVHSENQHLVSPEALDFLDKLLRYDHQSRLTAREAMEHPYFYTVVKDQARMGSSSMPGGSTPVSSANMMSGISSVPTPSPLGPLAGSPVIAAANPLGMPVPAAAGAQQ
# Assay: Kinase competition binding assay, CK2a
# Conditions: Table 1 kinase panel
# Method: (§1) Cannabis flavonoids and their analogs were subjected to kinase inhibition assay. The compounds were first screened at a single concentration of 10 μM in the primary assay. […]. To determine the kd or IC50 values, competition binding assays were established, authenticated and executed as described previously. Fabian et al., “A Small Molecule-Kinase Interaction Map For Clinical Kinase Inhibitors.”, Nat Biotechnol, 23(3):329-36, Epub (2005). See also, Karaman et al., “A Quantitative Analysis Of Kinase Inhibitor Selectivity”, Nat. Biotechnol. […] For most assays, kinases were fused to T7 phage strains (Fabian, supra) and for the other assays, kinases were produced in HEK-293 cells after which they were tagged with DNA for quantitative PCR detection. In general, full-length constructs were used for small, single domain kinases, and catalytic domain constructs for large multi-domain kinases. The binding assays utilized streptavidin-coated magnetic beads treated with biotinylated small molecule ligands for 30 minutes at room temperature which generated affinity resins for the kinase assays. The liganded beads were blocked with excess biotin and washed with blocking buffer (SeaBlock (Pierce), 1% BSA, 0.05% Tween 20, 1 mM DTT) to remove unbound ligand and to reduce non-specific phage binding. […] Test compounds were prepared as 40× stocks in 100% DMSO and diluted directly into the assay (Final DMSO concentration=2.5%). All reactions were performed in polypropylene 384-well plates in a final volume of 0.04 ml. […] The beads were then re-suspended in elution buffer (1×PBS, 0.05% Tween 20, 0.5 μM non-biotinylated affinity ligand) and incubated at room temperature with shaking for 30 minutes. The kinase concentration in the eluates was measured by quantitative PCR. An illustration of the kinase interaction process is presented below. Kd/IC50 values were determined using a standard dose response curve using the hill equation. Curves were fitted using a non-linear least square fit with the Levenberg-Marquardt algorithm.
# (§2) The compound(s) were screened at 10 μM and results for primary screen binding interactions are reported as ‘% Ctrl’, where lower numbers indicate stronger hits in the matrix.
row,SMILES,IC50 [nM]
1,COc1cc(-c2cc(=O)c3c(O)cc(O)c(C/C=C(\C)CCC=C(C)C)c3o2)ccc1O [FBL-03C],58
2,COc1cc(-c2cc(=O)c3c(O)c(CC=C(C)C)c(O)cc3o2)ccc1O [FBL-03B],768
3,COc1cc(-c2cc(=O)c3c(O)cc(O)c(CC=C(C)C)c3o2)ccc1O [FBL-03G],38
4,COc1cc(-c2cc(=O)c3c(O)c(C/C=C(\C)CCC=C(C)C)c(O)cc3o2)ccc1O [FBL-03A],740
5,COc1ccc(-c2cc(=O)c3c(O)c(C/C=C(\C)CCC=C(C)C)c(O)cc3o2)cc1OC [FBL-03D],> 30000

# Biological target: T3, FLT3(D835V) (Homo sapiens, UniProt P36888, D835V)
# T3 construct: made in house
# T3 sequence (P36888 27-993 D835V): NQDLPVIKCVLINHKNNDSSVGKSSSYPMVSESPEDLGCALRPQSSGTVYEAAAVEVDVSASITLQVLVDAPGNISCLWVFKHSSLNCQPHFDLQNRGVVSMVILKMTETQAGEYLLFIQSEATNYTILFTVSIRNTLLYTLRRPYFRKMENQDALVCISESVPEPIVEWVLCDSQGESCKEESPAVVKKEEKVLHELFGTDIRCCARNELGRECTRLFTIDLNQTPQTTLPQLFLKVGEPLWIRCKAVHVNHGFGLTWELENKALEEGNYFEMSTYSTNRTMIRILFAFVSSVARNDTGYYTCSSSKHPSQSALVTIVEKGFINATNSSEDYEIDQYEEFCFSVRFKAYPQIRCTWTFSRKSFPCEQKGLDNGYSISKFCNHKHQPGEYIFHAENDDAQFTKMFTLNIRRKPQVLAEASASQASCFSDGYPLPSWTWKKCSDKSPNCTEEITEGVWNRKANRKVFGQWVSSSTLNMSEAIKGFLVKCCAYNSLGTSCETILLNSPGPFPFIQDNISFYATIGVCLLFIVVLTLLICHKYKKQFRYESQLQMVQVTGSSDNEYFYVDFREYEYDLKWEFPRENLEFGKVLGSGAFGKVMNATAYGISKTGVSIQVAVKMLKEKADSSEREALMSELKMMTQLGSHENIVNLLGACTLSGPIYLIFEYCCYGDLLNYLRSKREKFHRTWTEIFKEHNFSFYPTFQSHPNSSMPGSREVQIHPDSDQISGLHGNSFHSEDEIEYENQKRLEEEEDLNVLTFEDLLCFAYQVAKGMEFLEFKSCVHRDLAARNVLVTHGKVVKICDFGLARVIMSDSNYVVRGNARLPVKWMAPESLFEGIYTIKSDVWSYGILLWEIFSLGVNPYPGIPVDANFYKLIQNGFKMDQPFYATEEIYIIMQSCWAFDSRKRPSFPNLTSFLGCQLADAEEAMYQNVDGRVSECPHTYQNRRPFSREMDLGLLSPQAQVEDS
# Assay: Kinase competition binding assay, FLT3(D835V)
# Conditions: Table 1 kinase panel
# Method: as §1, §2
row,SMILES,IC50 [nM]
1,COc1cc(-c2cc(=O)c3c(O)cc(O)c(C/C=C(\C)CCC=C(C)C)c3o2)ccc1O [FBL-03C],190
2,COc1cc(-c2cc(=O)c3c(O)c(CC=C(C)C)c(O)cc3o2)ccc1O [FBL-03B],< 1000
3,COc1cc(-c2cc(=O)c3c(O)cc(O)c(CC=C(C)C)c3o2)ccc1O [FBL-03G],< 1000
4,COc1cc(-c2cc(=O)c3c(O)c(C/C=C(\C)CCC=C(C)C)c(O)cc3o2)ccc1O [FBL-03A],220
5,COc1ccc(-c2cc(=O)c3c(O)c(C/C=C(\C)CCC=C(C)C)c(O)cc3o2)cc1OC [FBL-03D],> 30000

# Biological target: T4, KIT (Homo sapiens, UniProt P10721)
# T4 construct: made in house
# T4 sequence (P10721 26-976): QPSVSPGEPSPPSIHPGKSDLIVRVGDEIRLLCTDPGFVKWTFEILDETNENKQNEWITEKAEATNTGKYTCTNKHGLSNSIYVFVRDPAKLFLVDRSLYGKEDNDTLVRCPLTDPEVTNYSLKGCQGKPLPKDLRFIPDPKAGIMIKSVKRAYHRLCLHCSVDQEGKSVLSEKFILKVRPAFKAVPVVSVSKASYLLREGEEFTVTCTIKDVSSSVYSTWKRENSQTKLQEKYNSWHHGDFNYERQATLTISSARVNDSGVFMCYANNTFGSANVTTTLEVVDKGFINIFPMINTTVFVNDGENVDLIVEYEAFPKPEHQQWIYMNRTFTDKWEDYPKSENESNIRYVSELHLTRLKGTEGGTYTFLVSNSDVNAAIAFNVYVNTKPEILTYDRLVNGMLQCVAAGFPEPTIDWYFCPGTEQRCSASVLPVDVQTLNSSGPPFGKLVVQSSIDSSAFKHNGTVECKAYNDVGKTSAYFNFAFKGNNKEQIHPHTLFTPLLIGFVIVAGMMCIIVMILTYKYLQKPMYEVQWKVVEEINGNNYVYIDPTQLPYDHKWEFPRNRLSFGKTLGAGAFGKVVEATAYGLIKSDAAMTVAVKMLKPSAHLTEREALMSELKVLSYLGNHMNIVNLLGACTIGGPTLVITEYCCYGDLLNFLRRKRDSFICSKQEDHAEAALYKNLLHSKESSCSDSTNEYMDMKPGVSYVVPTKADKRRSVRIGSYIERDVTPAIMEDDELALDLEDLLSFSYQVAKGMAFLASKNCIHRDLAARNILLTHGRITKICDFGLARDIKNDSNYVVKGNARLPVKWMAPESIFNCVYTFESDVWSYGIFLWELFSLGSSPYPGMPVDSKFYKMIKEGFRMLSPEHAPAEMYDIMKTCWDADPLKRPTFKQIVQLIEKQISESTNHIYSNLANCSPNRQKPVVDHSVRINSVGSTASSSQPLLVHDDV
# Assay: Kinase competition binding assay, KIT
# Conditions: Table 1 kinase panel
# Method: as §1, §2
row,SMILES,IC50 [nM]
1,COc1cc(-c2cc(=O)c3c(O)cc(O)c(C/C=C(\C)CCC=C(C)C)c3o2)ccc1O [FBL-03C],> 1000
2,COc1cc(-c2cc(=O)c3c(O)c(CC=C(C)C)c(O)cc3o2)ccc1O [FBL-03B],< 1000
3,COc1cc(-c2cc(=O)c3c(O)cc(O)c(CC=C(C)C)c3o2)ccc1O [FBL-03G],< 1000
4,COc1cc(-c2cc(=O)c3c(O)c(C/C=C(\C)CCC=C(C)C)c(O)cc3o2)ccc1O [FBL-03A],350
5,COc1ccc(-c2cc(=O)c3c(O)c(C/C=C(\C)CCC=C(C)C)c(O)cc3o2)cc1OC [FBL-03D],> 30000

# Biological target: T5, PIK4CB (Homo sapiens, UniProt Q9UBF8)
# T5 construct: T7 phage fusion (most assays) or DNA tag for qPCR (HEK-293-made kinases); made in house
# T5 sequence (Q9UBF8 whole entry, the tested form may be a part): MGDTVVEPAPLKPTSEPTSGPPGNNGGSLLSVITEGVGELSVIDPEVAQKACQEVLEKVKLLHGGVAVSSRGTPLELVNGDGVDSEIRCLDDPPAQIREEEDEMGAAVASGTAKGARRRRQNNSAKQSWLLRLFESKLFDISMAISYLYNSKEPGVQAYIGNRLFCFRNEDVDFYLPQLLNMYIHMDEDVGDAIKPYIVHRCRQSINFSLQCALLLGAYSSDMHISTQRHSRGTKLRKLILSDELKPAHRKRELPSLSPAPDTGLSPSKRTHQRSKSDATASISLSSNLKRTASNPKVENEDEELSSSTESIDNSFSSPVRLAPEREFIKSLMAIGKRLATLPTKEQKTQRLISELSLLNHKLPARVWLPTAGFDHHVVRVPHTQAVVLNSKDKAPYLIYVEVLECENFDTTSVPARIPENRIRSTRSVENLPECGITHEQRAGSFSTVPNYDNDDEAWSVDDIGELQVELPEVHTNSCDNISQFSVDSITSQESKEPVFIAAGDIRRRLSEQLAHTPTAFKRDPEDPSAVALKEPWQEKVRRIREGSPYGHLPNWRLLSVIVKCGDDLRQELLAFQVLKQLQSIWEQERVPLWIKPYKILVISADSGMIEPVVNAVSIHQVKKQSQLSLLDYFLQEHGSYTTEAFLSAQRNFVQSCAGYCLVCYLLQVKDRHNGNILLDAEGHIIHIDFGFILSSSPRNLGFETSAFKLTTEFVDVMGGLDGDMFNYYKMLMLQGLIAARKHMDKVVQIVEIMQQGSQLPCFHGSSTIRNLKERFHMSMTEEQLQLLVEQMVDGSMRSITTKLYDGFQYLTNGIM
# Assay: Kinase competition binding assay, PIK4CB
# Conditions: Table 1 kinase panel
# Method: as §1, §2
row,SMILES,IC50 [nM]
1,COc1cc(-c2cc(=O)c3c(O)cc(O)c(C/C=C(\C)CCC=C(C)C)c3o2)ccc1O [FBL-03C],> 1000
2,COc1cc(-c2cc(=O)c3c(O)cc(O)c(CC=C(C)C)c3o2)ccc1O [FBL-03G],> 20000
3,COc1cc(-c2cc(=O)c3c(O)c(C/C=C(\C)CCC=C(C)C)c(O)cc3o2)ccc1O [FBL-03A],670
4,COc1ccc(-c2cc(=O)c3c(O)c(C/C=C(\C)CCC=C(C)C)c(O)cc3o2)cc1OC [FBL-03D],> 30000

# Biological target: T6, BIKE (Homo sapiens, UniProt Q9NSY1)
# T6 construct: made in house
# T6 sequence (Q9NSY1 whole entry): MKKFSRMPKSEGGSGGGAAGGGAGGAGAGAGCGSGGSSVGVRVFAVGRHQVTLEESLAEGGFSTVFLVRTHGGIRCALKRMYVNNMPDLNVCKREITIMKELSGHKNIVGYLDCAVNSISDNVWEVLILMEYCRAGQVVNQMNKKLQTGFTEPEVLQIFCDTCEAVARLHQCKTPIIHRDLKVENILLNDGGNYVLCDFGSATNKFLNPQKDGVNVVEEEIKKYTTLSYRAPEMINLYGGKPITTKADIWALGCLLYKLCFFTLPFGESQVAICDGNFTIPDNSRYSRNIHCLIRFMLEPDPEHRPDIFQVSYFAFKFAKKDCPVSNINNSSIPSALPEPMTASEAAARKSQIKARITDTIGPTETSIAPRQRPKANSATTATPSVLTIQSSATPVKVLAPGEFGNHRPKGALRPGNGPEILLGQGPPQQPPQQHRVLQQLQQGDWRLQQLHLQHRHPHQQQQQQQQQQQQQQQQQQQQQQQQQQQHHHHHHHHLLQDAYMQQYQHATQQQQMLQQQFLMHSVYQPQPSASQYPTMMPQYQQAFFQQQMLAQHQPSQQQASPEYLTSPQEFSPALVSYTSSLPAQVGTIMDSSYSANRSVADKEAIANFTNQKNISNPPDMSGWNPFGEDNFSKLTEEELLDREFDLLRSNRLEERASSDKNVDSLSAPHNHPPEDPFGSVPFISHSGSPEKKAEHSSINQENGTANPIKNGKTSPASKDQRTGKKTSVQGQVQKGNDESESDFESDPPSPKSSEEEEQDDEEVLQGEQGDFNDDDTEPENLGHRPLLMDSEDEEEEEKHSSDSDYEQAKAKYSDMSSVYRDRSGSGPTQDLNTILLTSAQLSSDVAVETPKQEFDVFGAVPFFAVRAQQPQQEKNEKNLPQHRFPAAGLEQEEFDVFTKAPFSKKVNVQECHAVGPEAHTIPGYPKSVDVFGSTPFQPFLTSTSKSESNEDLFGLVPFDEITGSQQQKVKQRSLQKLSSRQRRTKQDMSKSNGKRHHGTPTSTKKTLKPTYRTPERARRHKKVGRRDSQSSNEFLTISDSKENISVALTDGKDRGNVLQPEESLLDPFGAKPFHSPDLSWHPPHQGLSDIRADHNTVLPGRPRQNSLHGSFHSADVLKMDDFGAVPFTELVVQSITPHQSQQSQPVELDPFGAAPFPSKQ
# Assay: Kinase competition binding assay, BIKE
# Conditions: Table 1 kinase panel
# Method: as §1, §2
row,SMILES,IC50 [nM]
1,COc1cc(-c2cc(=O)c3c(O)cc(O)c(C/C=C(\C)CCC=C(C)C)c3o2)ccc1O [FBL-03C],21
2,COc1cc(-c2cc(=O)c3c(O)c(CC=C(C)C)c(O)cc3o2)ccc1O [FBL-03B],> 20000
3,COc1cc(-c2cc(=O)c3c(O)cc(O)c(CC=C(C)C)c3o2)ccc1O [FBL-03G],> 20000
4,COc1cc(-c2cc(=O)c3c(O)c(C/C=C(\C)CCC=C(C)C)c(O)cc3o2)ccc1O [FBL-03A],> 20000
5,COc1ccc(-c2cc(=O)c3c(O)c(C/C=C(\C)CCC=C(C)C)c(O)cc3o2)cc1OC [FBL-03D],> 30000

# Biological target: T7, FLT4(VEGFR3) (Homo sapiens, UniProt P35916)
# T7 construct: made in house
# T7 sequence (P35916 25-1363): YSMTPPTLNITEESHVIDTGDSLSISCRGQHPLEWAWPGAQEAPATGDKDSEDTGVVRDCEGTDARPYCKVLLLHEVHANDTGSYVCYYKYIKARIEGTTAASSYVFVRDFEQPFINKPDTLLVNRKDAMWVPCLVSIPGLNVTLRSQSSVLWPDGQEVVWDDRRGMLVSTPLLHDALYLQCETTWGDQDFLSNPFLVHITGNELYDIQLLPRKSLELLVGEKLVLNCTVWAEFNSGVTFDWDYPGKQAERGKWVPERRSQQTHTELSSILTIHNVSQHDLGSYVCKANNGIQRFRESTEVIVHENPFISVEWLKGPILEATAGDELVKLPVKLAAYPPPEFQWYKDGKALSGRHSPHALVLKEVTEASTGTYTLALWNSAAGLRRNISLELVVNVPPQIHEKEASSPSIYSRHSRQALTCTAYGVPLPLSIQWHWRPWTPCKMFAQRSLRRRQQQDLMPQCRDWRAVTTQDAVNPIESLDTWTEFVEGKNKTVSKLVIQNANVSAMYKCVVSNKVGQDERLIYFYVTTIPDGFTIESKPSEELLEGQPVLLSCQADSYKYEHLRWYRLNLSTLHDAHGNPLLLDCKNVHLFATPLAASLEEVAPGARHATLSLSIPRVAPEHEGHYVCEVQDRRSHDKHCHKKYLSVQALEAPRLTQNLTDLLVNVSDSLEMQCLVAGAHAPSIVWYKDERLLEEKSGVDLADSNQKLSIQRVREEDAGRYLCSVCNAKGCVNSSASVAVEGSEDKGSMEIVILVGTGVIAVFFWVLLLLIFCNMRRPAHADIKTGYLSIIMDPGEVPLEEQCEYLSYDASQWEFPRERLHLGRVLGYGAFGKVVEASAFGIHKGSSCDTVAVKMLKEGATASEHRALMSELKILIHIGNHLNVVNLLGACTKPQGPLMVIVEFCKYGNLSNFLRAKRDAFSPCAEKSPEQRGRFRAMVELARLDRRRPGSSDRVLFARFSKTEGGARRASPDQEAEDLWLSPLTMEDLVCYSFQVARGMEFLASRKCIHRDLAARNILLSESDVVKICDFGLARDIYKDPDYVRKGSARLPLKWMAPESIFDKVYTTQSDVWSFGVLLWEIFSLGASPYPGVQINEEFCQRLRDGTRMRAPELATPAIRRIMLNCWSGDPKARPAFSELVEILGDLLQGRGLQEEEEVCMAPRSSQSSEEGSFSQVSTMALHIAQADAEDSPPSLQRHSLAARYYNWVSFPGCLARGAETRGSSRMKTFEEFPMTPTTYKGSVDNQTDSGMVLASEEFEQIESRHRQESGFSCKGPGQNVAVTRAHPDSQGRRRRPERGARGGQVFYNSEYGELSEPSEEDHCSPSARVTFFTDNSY
# Assay: Kinase competition binding assay, FLT4(VEGFR3)
# Conditions: Table 1 kinase panel
# Method: as §1, §2
row,SMILES,IC50 [nM]
1,COc1cc(-c2cc(=O)c3c(O)cc(O)c(C/C=C(\C)CCC=C(C)C)c3o2)ccc1O [FBL-03C],> 20000
2,COc1cc(-c2cc(=O)c3c(O)c(CC=C(C)C)c(O)cc3o2)ccc1O [FBL-03B],9.3
3,COc1cc(-c2cc(=O)c3c(O)cc(O)c(CC=C(C)C)c3o2)ccc1O [FBL-03G],4220
4,COc1cc(-c2cc(=O)c3c(O)c(C/C=C(\C)CCC=C(C)C)c(O)cc3o2)ccc1O [FBL-03A],330
5,COc1ccc(-c2cc(=O)c3c(O)c(C/C=C(\C)CCC=C(C)C)c(O)cc3o2)cc1OC [FBL-03D],> 30000

# Biological target: T8, DYRK1B (Homo sapiens, UniProt Q9Y463)
# T8 construct: made in house
# Assay: Kinase competition binding assay, DYRK1B
# Conditions: Table 1 kinase panel
# Method: as §1, §2
row,SMILES,IC50 [nM]
1,COc1cc(-c2cc(=O)c3c(O)cc(O)c(C/C=C(\C)CCC=C(C)C)c3o2)ccc1O [FBL-03C],6400
2,COc1cc(-c2cc(=O)c3c(O)c(CC=C(C)C)c(O)cc3o2)ccc1O [FBL-03B],1670
3,COc1cc(-c2cc(=O)c3c(O)cc(O)c(CC=C(C)C)c3o2)ccc1O [FBL-03G],22.8
4,COc1cc(-c2cc(=O)c3c(O)c(C/C=C(\C)CCC=C(C)C)c(O)cc3o2)ccc1O [FBL-03A],> 20000
5,COc1ccc(-c2cc(=O)c3c(O)c(C/C=C(\C)CCC=C(C)C)c(O)cc3o2)cc1OC [FBL-03D],> 30000
